{"source": "paper PMC2716802", "about": "(Structure (London, England : 1993), 2008)", "origin": "cited, not measured here", "biological_target": "BoNT/A LC (Clostridium botulinum, UniProt P0DPI0)", "sequence (P0DPI0 2-448 limits assumed)": "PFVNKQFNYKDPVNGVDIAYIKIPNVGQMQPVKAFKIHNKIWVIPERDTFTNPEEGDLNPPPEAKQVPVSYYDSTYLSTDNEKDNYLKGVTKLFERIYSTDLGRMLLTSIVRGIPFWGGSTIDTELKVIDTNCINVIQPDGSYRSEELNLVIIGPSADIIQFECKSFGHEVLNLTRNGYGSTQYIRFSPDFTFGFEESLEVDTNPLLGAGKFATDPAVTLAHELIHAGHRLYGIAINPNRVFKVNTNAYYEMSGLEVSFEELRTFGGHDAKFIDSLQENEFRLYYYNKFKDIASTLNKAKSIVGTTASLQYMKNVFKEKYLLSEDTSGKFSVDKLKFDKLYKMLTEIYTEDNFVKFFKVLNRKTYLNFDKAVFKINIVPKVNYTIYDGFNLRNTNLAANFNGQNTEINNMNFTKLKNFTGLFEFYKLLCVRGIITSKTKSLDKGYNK", "note": "No end group written: not given here."}
{"substance": "Ac-CRATKML", "values": [{"measurement": "Ki", "result": 1.9, "unit": "µM"}]}
